Measured values as given in ChEMBL document CHEMBL3045664, “Docking study on trametenolic acid B as a -glucosidase inhibitor” (Med Chem Res, 2012).

Molecular target: Alpha-glucosidase MAL62 (Saccharomyces cerevisiae, UniProt P07265)
Test: Inhibition of Saccharomyces cerevisiae (baker's yeast) alpha-glucosidase using p-nitrophenyl glucopyranoside as substrate preincubated for 30 min before substrate addition measured after 1 hr by spectrophotometric analysis

Chain of Alpha-glucosidase MAL62 (P07265 whole entry): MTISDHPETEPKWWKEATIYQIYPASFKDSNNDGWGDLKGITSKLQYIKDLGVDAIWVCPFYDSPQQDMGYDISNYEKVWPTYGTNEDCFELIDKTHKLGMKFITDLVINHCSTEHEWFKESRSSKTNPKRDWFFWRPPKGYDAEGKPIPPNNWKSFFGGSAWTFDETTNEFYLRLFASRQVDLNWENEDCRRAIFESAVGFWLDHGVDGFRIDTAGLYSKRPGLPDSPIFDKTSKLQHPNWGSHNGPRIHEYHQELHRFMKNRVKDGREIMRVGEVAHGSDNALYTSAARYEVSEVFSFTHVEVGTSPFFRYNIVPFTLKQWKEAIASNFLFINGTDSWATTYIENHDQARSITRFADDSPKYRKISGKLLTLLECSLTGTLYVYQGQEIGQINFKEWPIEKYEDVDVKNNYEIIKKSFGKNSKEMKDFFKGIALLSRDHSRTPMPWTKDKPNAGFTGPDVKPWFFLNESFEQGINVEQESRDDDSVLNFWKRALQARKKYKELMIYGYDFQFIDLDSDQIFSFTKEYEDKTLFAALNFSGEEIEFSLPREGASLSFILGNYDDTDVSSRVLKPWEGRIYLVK

CC(C)=CCC[C@@H](C(=O)O)[C@H]1CC[C@@]2(C)C3=C(CC[C@]12C)[C@@]1(C)CC[C@H](O)C(C)(C)[C@@H]1CC3 [TRAMETENOLIC ACID]
IC50: 17.1 µM
